Assay results published in US4323567A, “Arylmalonamido-1-oxadethiacephalosporins” (priority 1976, dated 1982).
In brackets after ≈: the same amount, converted by molar mass. Read-outs that look alike come from different tables or passages of the source.

Key:
Experiment in all cases: Minimal inhibitory concentration, nutrient agar plate
[1] = tested on: P. vulgaris CN-329; format: cell-based; settings: Proteus vulgaris
[2] = tested on: P. vulgaris No. 3; format: cell-based; settings: Proteus vulgaris
[3] = tested on: E. coli JC-2; format: cell-based; settings: Escherichia coli
[4] = tested on: Ps. aeruginosa 25619; format: cell-based, Pseudomonas aeruginosa
[5] = tested on: Proteus mirabilis PR-4; format: cell-based
[6] = tested on: Escherichia coli H; format: cell-based
[7] = tested on: Klebsiella sp. 363; format: cell-based
[8] = tested on: E. coli 73; format: cell-based, Escherichia coli
[9] = tested on: Pseudomonas aeruginosa Denken; format: cell-based
[10] = tested on: Klebsiella pneumoniae; format: cell-based
[11] = tested on: Enterobacter cloacae 233; format: cell-based
[12] = tested on: Serratia marsescens 13880; format: cell-based
[13] = tested on: P. morganii No. 9; format: cell-based, Proteus morganii; settings: Morganella morganii
[14] = tested on: Ps. aeruginosa 24; format: cell-based, Pseudomonas aeruginosa
[15] = tested on: E. coli 377; format: cell-based, Escherichia coli
[16] = CN329, ester, in the presence of 5% horse serum, sodium salt, inoculum size 10^8, pH 7.0, read-out: Minimal inhibitory concentration
[17] = NO.3, ester, in the presence of 5% horse serum, sodium salt, inoculum size 10^8, pH 7.0, read-out: Minimal inhibitory concentration
[18] = JC2, ester, in the presence of 5% horse serum, sodium salt, inoculum size 10^8, pH 7.0, read-out: Minimal inhibitory concentration
[19] = Pseudomonas aeruginosa, 25619, ester, in the presence of 5% horse serum, sodium salt, inoculum size 10^8, pH 7.0, read-out: Minimal inhibitory concentration
[20] = PR4, ester, in the presence of 5% horse serum, sodium salt, inoculum size 10^8, pH 7.0, read-out: Minimal inhibitory concentration
[21] = ester, in the presence of 5% horse serum, sodium salt, inoculum size 10^8, pH 7.0, read-out: Minimal inhibitory concentration
[22] = SP.363, ester, in the presence of 5% horse serum, sodium salt, inoculum size 10^8, pH 7.0, read-out: Minimal inhibitory concentration
[23] = Escherichia coli, 73, ester, in the presence of 5% horse serum, sodium salt, inoculum size 10^8, pH 7.0, read-out: Minimal inhibitory concentration
[24] = Enterobacter cloacae, 233, ester, in the presence of 5% horse serum, sodium salt, inoculum size 10^8, pH 7.0, read-out: Minimal inhibitory concentration
[25] = Serratia, 13880, ester, in the presence of 5% horse serum, sodium salt, inoculum size 10^8, pH 7.0, read-out: Minimal inhibitory concentration
[26] = NO.9, ester, in the presence of 5% horse serum, sodium salt, inoculum size 10^8, pH 7.0, read-out: Minimal inhibitory concentration
[27] = Pseudomonas aeruginosa, 24, ester, in the presence of 5% horse serum, sodium salt, inoculum size 10^8, pH 7.0, read-out: Minimal inhibitory concentration
[28] = Escherichia coli, 377, ester, in the presence of 5% horse serum, sodium salt, inoculum size 10^8, pH 7.0, read-out: Minimal inhibitory concentration
[29] = CN329, as sodium salt, inoculum size 10^8, pH 7.0, read-out: Minimal inhibitory concentration
[30] = NO.3, as sodium salt, inoculum size 10^8, pH 7.0, read-out: Minimal inhibitory concentration
[31] = JC2, as sodium salt, inoculum size 10^8, pH 7.0, read-out: Minimal inhibitory concentration
[32] = Pseudomonas aeruginosa, 25619, as sodium salt, inoculum size 10^8, pH 7.0, read-out: Minimal inhibitory concentration
[33] = PR4, as sodium salt, inoculum size 10^8, pH 7.0, read-out: Minimal inhibitory concentration
[34] = as sodium salt, inoculum size 10^8, pH 7.0, read-out: Minimal inhibitory concentration
[35] = SP.363, as sodium salt, inoculum size 10^8, pH 7.0, read-out: Minimal inhibitory concentration
[36] = Escherichia coli, 73, as sodium salt, inoculum size 10^8, pH 7.0, read-out: Minimal inhibitory concentration
[37] = Enterobacter cloacae, 233, as sodium salt, inoculum size 10^8, pH 7.0, read-out: Minimal inhibitory concentration
[38] = Serratia, 13880, as sodium salt, inoculum size 10^8, pH 7.0, read-out: Minimal inhibitory concentration
[39] = NO.9, as sodium salt, inoculum size 10^8, pH 7.0, read-out: Minimal inhibitory concentration
[40] = Pseudomonas aeruginosa, 24, as sodium salt, inoculum size 10^8, pH 7.0, read-out: Minimal inhibitory concentration
[41] = Escherichia coli, 377, as sodium salt, inoculum size 10^8, pH 7.0, read-out: Minimal inhibitory concentration
[42] = pH 7, read-out: Minimal inhibitory concentration

| Structure (SMILES) | MIC [1, 29] | MIC [2, 30] | MIC [3, 31] | MIC [4, 32] | MIC [5, 33] | MIC [6, 34] | MIC [7, 35] | MIC [8, 36] | MIC [9, 34] | MIC [10, 34] | MIC [11, 37] | MIC [12, 38] | MIC [13, 39] | MIC [14, 40] | MIC [15, 41] | also measured |
| --- | --- | --- | --- | --- | --- | --- | --- | --- | --- | --- | --- | --- | --- | --- | --- | --- |
| CO[C@@]1(NC(=O)C(C(=O)Oc2ccc3c(c2)CCC3)c2ccc(O)cc2)C(=O)N2C(C(=O)O)=C(CSc3nnnn3C)CO[C@@H]21 (stereo partly drawn) [III-16, 7β-[α-P-hydroxyphenyl-α-(5-indanyl)oxycarvonylacetamido]-7β-methoxy-3-(1-methyltetrazol-5-yl)thiomethyl-1-oxadethia-3-cephem-4-carboxylic acid] | – | – | – | – | – | – | – | – | – | – | – | – | – | – | – | MIC [1, 16]: 0.78 µg/mL; MIC [2, 17]: 0.39 µg/mL; MIC [3, 18]: 0.02 µg/mL; MIC [4, 19]: 12.5 µg/mL; MIC [5, 20]: 0.39 µg/mL; MIC [6, 21]: 0.1 µg/mL; MIC [7, 22]: 0.2 µg/mL; MIC [8, 23]: 0.78 µg/mL; MIC [9, 21]: 100 µg/mL; MIC [10, 21]: 0.2 µg/mL; MIC [11, 24]: 0.39 µg/mL; MIC [12, 25]: 0.39 µg/mL; MIC [13, 26]: 0.2 µg/mL; MIC [14, 27]: 25 µg/mL; MIC [15, 28]: 0.2 µg/mL |
| Cn1nnnc1SCC1=C(C(=O)O)N2C(=O)[C@@H](NC(=O)C(C(=O)O)c3ccc(O)cc3)[C@H]2OC1 (stereo partly drawn) [Example III-6, 7β-(α-p-hydroxyphenyl-α-carboxyacetamido)-3-(1-methyltetrazol-5-yl)thiomethyl-1-oxadethia-3-cephem-4-carboxylic acid] | > 100 µg/mL | > 100 µg/mL | 0.39 µg/mL | 6.25 µg/mL | 0.78 µg/mL | 0.2 µg/mL | > 100 µg/mL | > 100 µg/mL | > 100 µg/mL | 0.78 µg/mL | 0.78 µg/mL | 0.78 µg/mL | 0.78 µg/mL | > 100 µg/mL | 0.39 µg/mL | – |
| CO[C@@]1(NC(=O)C(C(=O)Oc2ccc3c(c2)CCC3)c2ccccc2)C(=O)N2C(C(=O)O)=C(CSc3nnnn3C)CO[C@@H]21 (stereo partly drawn) [III-24, 7β-[α-(indan-5-yl)oxycarbonyl-α-phenylacetamido]-7α-methoxy-3-(1-methyltetrazol-5-yl)thiomethyl-1-oxadethia-3-cephem-4-carboxylic acid] | – | – | – | – | – | – | – | – | – | – | – | – | – | – | – | MIC [1, 16]: 0.1 µg/mL; MIC [2, 17]: 0.39 µg/mL; MIC [3, 18]: 0.01 µg/mL; MIC [4, 19]: 12.5 µg/mL; MIC [5, 20]: 0.1 µg/mL; MIC [6, 21]: 0.025 µg/mL; MIC [7, 22]: 0.05 µg/mL; MIC [8, 23]: 0.39 µg/mL; MIC [9, 21]: 100 µg/mL; MIC [10, 21]: 0.1 µg/mL; MIC [11, 24]: 0.2 µg/mL; MIC [12, 25]: 0.78 µg/mL; MIC [13, 26]: 0.2 µg/mL; MIC [14, 27]: 50 µg/mL; MIC [15, 28]: 0.78 µg/mL |
| CO[C@@]1(NC(=O)C(C(=O)O)c2ccc(OC(=O)NC(N)=O)cc2)C(=O)N2C(C(=O)O)=C(CSc3nnnn3C)CO[C@@H]21 (stereo partly drawn) [III-27, 7β-(α-p-ureidocarbonyloxyphenyl-α-carboxyacetamido)-7α-methoxy-3-(1-methyltetrazol-5-yl)thiomethyl--oxadethia-3-cephem-4-carboxylic acid] | – | – | – | – | – | – | – | – | – | – | – | – | – | – | – | MIC ([1]; CN329, pH 7, read-out: Minimal inhibitory concentration): 0.2 µg/mL (≈ 0.33 µM); MIC ([2]; NO.3, pH 7, read-out: Minimal inhibitory concentration): 0.39 µg/mL (≈ 0.643 µM); MIC ([3]; JC2, pH 7, read-out: Minimal inhibitory concentration): 0.2 µg/mL (≈ 0.33 µM); MIC ([4]; Pseudomonas aeruginosa, 25619, pH 7, read-out: Minimal inhibitory concentration): 12.5 µg/mL (≈ 20.6 µM); MIC ([5]; PR4, pH 7, read-out: Minimal inhibitory concentration): 0.2 µg/mL (≈ 0.33 µM); MIC [6, 42]: 0.05 µg/mL (≈ 0.0824 µM); MIC ([7]; SP.363, pH 7, read-out: Minimal inhibitory concentration): 0.2 µg/mL (≈ 0.33 µM); MIC ([8]; Escherichia coli, 73, pH 7, read-out: Minimal inhibitory concentration): 0.78 µg/mL (≈ 1.29 µM); MIC [9, 42]: > 100 µg/mL; MIC [10, 42]: 0.39 µg/mL (≈ 0.643 µM); MIC ([11]; Enterobacter cloacae, 233, pH 7, read-out: Minimal inhibitory concentration): 0.78 µg/mL (≈ 1.29 µM); MIC ([12]; Serratia, 13880, pH 7, read-out: Minimal inhibitory concentration): 3.13 µg/mL (≈ 5.16 µM); MIC ([13]; NO.9, pH 7, read-out: Minimal inhibitory concentration): 0.2 µg/mL (≈ 0.33 µM); MIC ([14]; Pseudomonas aeruginosa, 24, pH 7, read-out: Minimal inhibitory concentration): 50 µg/mL (≈ 82.4 µM); MIC ([15]; Escherichia coli, 377, pH 7, read-out: Minimal inhibitory concentration): 0.78 µg/mL (≈ 1.29 µM) |
| CO[C@@]1(NC(=O)C(C(=O)O)c2ccc(OC(N)=O)cc2)C(=O)N2C(C(=O)O)=C(CSc3nnnn3C)CO[C@@H]21 (stereo partly drawn) [Example III-25, 7β-(α-p-carbamoyloxyphenyl-α-carboxyacetamido)-7α-methoxy-3-(1-methyltetrazol-5-yl)thiomethyl-1-oxadethia-3-cephem-4-carboxylic acid] | 0.2 µg/mL | 0.39 µg/mL | 0.39 µg/mL | 25 µg/mL | 0.2 µg/mL | 0.1 µg/mL | 0.39 µg/mL | 1.56 µg/mL | > 100 µg/mL | 0.39 µg/mL | 0.78 µg/mL | 1.56 µg/mL | 0.2 µg/mL | 100 µg/mL | 0.78 µg/mL | – |
| CO[C@@]1(NC(=O)C(C(=O)O)c2ccccc2)C(=O)N2C(C(=O)O)=C(CSc3nnnn3C)CO[C@@H]21 (stereo partly drawn) [III-13, 7β-(α-carboxy-α-phenylacetamido)-7α-methoxy-3-(1-methyltetrazol-5-yl)thiomethyl-1-oxadethia-3-cephem-4-carboxylic acid] | 0.1 µg/mL | 0.2 µg/mL | 0.01 µg/mL | 12.5 µg/mL | 0.2 µg/mL | 0.025 µg/mL | 0.05 µg/mL | 0.39 µg/mL | 100 µg/mL | 0.1 µg/mL | 0.2 µg/mL | 0.39 µg/mL | 0.1 µg/mL | 50 µg/mL | 0.2 µg/mL | – |
| Cc1nnc(SCC2=C(C(=O)O)N3C(=O)[C@@H](NC(=O)Cn4cnnn4)[C@H]3SC2)s1 [Cefazolin, reference compound] | > 100 µg/mL | > 100 µg/mL | 3.2 µg/mL | > 100 µg/mL | 6.2 µg/mL | 1.6 µg/mL | > 100 µg/mL | > 100 µg/mL | > 100 µg/mL | 3.2 µg/mL | > 100 µg/mL | > 100 µg/mL | > 100 µg/mL | > 100 µg/mL | 100 µg/mL | – |
